Results on 14 compounds are retold here after patent US10259809B2, “Fluorinated imidazo[4,5-C]quinoline derivatives as inhibitors of bromodomain containing proteins” (Trillium Therapeutics Inc., priority 2015, dated 2019).

The term IC50 denotes the concentration needed to halve the response being measured. Read a high IC50 as lower potency. A word on the EC50: it is the midpoint of the concentration-response curve.

The nature of data set [1]: Liver microsome stability, mouse. In kind it is in vitro ADME, mouse (CD-1. Conditions: male, CD-1, mouse, pooled mouse liver microsomes, 1 μM compound, 0.5 mg/ml microsomes, 37° C., read-out: % recovery Mouse Liver Microsomes (MLM) (30 min). On the procedure:
(§1) Working stocks were initially diluted to a concentration of 40.0 μM in 0.1 M potassium phosphate buffer before addition to the reaction vials. Pooled mouse (CD-1, male) or human (50 donors) liver microsomes were utilized at a final concentration of 0.5 mg/ml. Duplicate wells were used for each time point (0 and 30 minutes). Reactions were carried out at 37° C. in a shaker, and the final concentration of DMSO was kept constant at 0.01%. The final volume for each reaction was 100 μL, which includes the addition of an NADPH-Regeneration solution (NRS) mix. This NRS mix was comprised of glucose 6-phosphate dehydrogenase (0.4 U/mL), NADP+ (1.3 mM), MgCl2 (3.3 mM), and glucose 6-phosphate (3.3 mM) in assay mixtures. Upon completion of the 30 minute time point, reactions were terminated by the addition of 1.5-volumes (150 μL) of ice-cold, acetonitrile with 0.5% formic acid and internal standard. Samples were then centrifuged at 4,000 rpm for 10 minutes to remove debris and precipitated protein. Approximately 150 μL of supernatant was subsequently transferred to a new 96 well microplate for LC/MS analysis.
(§2) Narrow-window mass extraction LC/MS analysis was performed for all samples using a Waters Xevo quadrupole time-of-flight (QTof) mass spectrometer and an ACQUITY UPLC system, to determine relative peak areas of parent compound.
For orientation: Microsomes from liver hold many membrane-bound enzymes, among them those of drug oxidation.

Data set [2] can be described thus: Liver microsome stability, human. In kind it is in vitro ADME. The settings on record: pooled human liver microsomes (50 donors), 1 μM compound, 0.5 mg/ml microsomes, 37° C., read-out: % recovery Human Liver Microsomes (HLM) (30 min). Here is the method: as §1, §2
Another data set concerns the target T1, BRD2-1: Domain 1 of BRD2 (Homo sapiens, UniProt P25440).
T1 construct: BRD2-1: Domain 1 of BRD2
The data set can be described thus: Bromodomain binding assay (Example 6), BRD2-1. Here is the method:
(§3) The binding of the compounds of the application to bromodomains BRD2, BRD3 and BRD4 was assessed using a time resolved fluorescent resonance energy transfer binding assay (Alpha Screen Technology), that measures the binding of an acetylated histone peptide to the bromodomain protein.
(§4) The bromodomain protein, histone peptide and a variable concentration of test compound were incubated together to reach thermodynamic equilibrium.

For another data set, the target named is T2, BRD3-1: Domain 1 of BRD3 (Homo sapiens, UniProt Q15059).
T2 construct: BRD3-1: Domain 1 of BRD3
T2 sequence (Q15059 34-140 limits assumed): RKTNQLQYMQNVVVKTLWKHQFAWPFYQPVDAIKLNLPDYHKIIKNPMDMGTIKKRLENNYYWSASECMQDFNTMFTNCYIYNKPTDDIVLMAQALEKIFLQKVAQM
The data set can be described thus: Bromodomain binding assay (Example 6), BRD3-1. On the procedure: as §3, §4

In data set [3] the target is T3, BRD4-FL: Full length BRD4 (Homo sapiens, UniProt O60885).
T3 construct: BRD4-FL: Full length BRD4
The data set can be described thus: Bromodomain binding assay (Example 6), BRD4-FL. On the procedure: as §3, §4

The next data set addresses T4, BRD2-1 (Homo sapiens, UniProt P25440).
T4 construct: BRD2-1: Domain 1 of BRD2
Kind of data set: BET Bromodomain AlphaScreen assay (Example 9), BRD2-1. In kind it is binding. Here is the method: (§5) The reader assay was a binding assay using the AlphaScreen technology fluorescence energy resonance transfer (FRET) assay. The biotinylated peptide binding to the reader domain of His-tagged protein is monitored by the singlet oxygen transfer from the Streptavidin-coated donor beads to the AlphaScreen Ni-chelate acceptor beads.
(§6) Reaction buffer: 50 mM Hepes, pH7.5, 100 mM NaCl, 0.05% CHAPS, 0.1% BSA, and 1% DMSO (Buffer and DMSO concentration may be different for different reader).
(§7) Biotin-peptide; sequences were different for different targets.
(§8) Reaction Procedure: • 1. Deliver 4× BRD in wells of reaction plate except No BRD control wells. Add buffer instead. • 2. Deliver compounds in 100% DMSO into the BRD mixture by Acoustic technology (Echo550; nanoliter range). Spin down and pre-incubation for 30 min. • 3. Deliver 4× Ligand. Spin and shake. • 4. Incubate for 30 min at room temperature with gentle shaking. • 5. Deliver 4× donor beads. Spin and shake. • 6. Deliver 4× acceptor beads. Spin and shake. Then gentle shaking in the dark for 60 min. • 7.
A general note: Alpha assays give light when donor and acceptor beads are brought close together.

In another data set the target is T5, BRD3-1 (Homo sapiens, UniProt Q15059).
T5 construct: BRD3-1: Domain 1 of BRD3
T5 sequence (Q15059 34-140 limits assumed): as above
Kind of data set: BET Bromodomain AlphaScreen assay (Example 9), BRD3-1. It counts as binding. On the procedure:
as §5, §6, §7, §8

Another data set deals with T6, BRD4-FL (Homo sapiens, UniProt O60885).
T6 construct: BRD4-FL: Full length BRD4
Kind of data set: BET Bromodomain AlphaScreen assay (Example 9), BRD4-FL. In kind it is binding. Here is the method: as §5, §6, §7, §8

For data set [4], the system named is MM.1S subcutaneous human multiple myeloma xenograft. Kind of data set: MM.1S subcutaneous human multiple myeloma xenograft model, efficacy. It counts as in vivo, NOD SCID mice. Here is the method: • Species & Strain: NOD SCID mice • Age: 7-8 week • Total Number: 50 mice plus 40% spare • Sex: Female • Body Weight: 18 to 22 g Animal Maintenance
Groups and treatments started when the mean tumor volume reached about 100-150 mm^3. Based on the tumor volume, mice were randomly assigned to respective groups using a computer-generated randomization procedure.
Each mouse was inoculated subcutaneously on the right flank with MM.1S tumor cells (5×10^6) in 0.1 ml of RPMI-1640 without serum (mixed matrigel) for tumor development. The treatment started when the mean tumor size reached approximately 100-150 mm^3. Mice were then randomized into groups.
The measurement of tumor size was conducted twice weekly with a caliper and the tumor volume (mm^3) was estimated using the formula: TV=a×b^2/2, where “a” and “b” are long and short diameters of a tumor, respectively. The TVs were used for calculation of the tumor growth inhibition (TGI, an indicator of antitumor effectiveness) value using the formula: TGI=(1−T/C)×100%, where “T” and “C” is the mean relative volumes (% tumor growth) of the tumors in the treated and the control groups, respectively, on a given day after tumor inoculation. The experiment terminated when the mean tumor volume exceeded 2000 mm^3 or severe body weight loss was observed.
For orientation: Xenograft models place foreign cells or tissue in a host animal.

Counter-ions that a name gives are not always drawn.

T4 sequence (P25440 74-180 limits assumed): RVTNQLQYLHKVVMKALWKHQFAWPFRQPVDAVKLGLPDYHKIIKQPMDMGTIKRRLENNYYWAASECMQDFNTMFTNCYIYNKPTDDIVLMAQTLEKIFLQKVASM
T1 sequence (P25440 74-180 limits assumed): as above

In the case of `COc1cc2c(cc1-c1c(C)noc1C)ncc1nc(CN3CCC(F)(F)C3)n([C@H](C)COC(F)F)c12` [3(i)], the recovery at 30 min, 1 μM in [1] was determined as 10.4%; in data set [2], 7.4%.

As to `COc1cc2c(cc1-c1c(C)noc1C)ncc1nc(CN3CCOCC3)n([C@H](C)COC(F)F)c12` [3(a), 4-[[1-[(1R)-2-(difluoromethoxy)-1-methyl-ethyl]-7-(3,5-dimethylisoxazol-4-yl)-8-methoxy-imidazo[4,5-c]quinolin-2-yl]methyl]morpholine trihydrochloride], the IC50 on BRD2-1: Domain 1 of BRD2 worked out at 19 nM; on BRD3-1: Domain 1 of BRD3, 10 nM; in data set [3], 10 nM. Moreover, the EC50 on BRD2-1 was 19.3 nM; on BRD3-1 it was 10 nM; at BRD4-FL it was 9.52 nM. Further, the recovery at 30 min, 1 μM in [1] came out at 3.7%; in [2], 1.9%.

Consider `COc1cc2c(cc1-c1c(C)noc1C)ncc1nc(C3CCOCC3)n([C@@H](C)COC(F)F)c12` [2(a), 4-[1-[(1S)-2-(difluoromethoxy)-1-methyl-ethyl]-8-methoxy-2-tetrahydropyran-4-yl-imidazo[4,5-c]quinolin-7-yl]-3,5-dimethyl-isoxazole], for which the IC50 on BRD2-1: Domain 1 of BRD2 was 63 nM; at BRD3-1: Domain 1 of BRD3, 44 nM; in [3] it was 40 nM. Besides, the values for the EC50 at BRD2-1, on BRD3-1 and at BRD4-FL were 63.4 nM, 43.8 nM and 40.4 nM, respectively.

As to `COc1cc2c(cc1-c1c(C)noc1C)ncc1nc(CN(C)C)n([C@H](C)COC(F)F)c12` [3(b).HCl], the values for the EC50 on BRD2-1, at BRD3-1 and on BRD4-FL were 32.3 nM, 17.6 nM and 31.7 nM, respectively.

Consider `CNCc1nc2cnc3cc(-c4c(C)noc4C)c(OC)cc3c2n1[C@H](C)COC(F)F` [3(g)], for which the recovery at 30 min, 1 μM in data set [1] was determined as 0.1%; in [2], 58.5%.

For the compound `COc1cc2c(cc1-c1c(C)noc1C)ncc1nc(C3CCCC3)n([C@H](C)COC(F)F)c12` [2(k), 4-[2-cyclopentyl-1-[(1R)-2-(difluoromethoxy)-1-methyl-ethyl]-8-methoxy-imidazo[4,5-c]quinolin-7-yl]-3,5-dimethyl-isoxazole], the results for the recovery at 30 min, 1 μM in [1] and in data set [2] were 0.6% and 0.1%, respectively.

Take `COc1cc2c(cc1-c1c(C)noc1C)ncc1nc(C3CCOCC3)n(CCOC(F)F)c12` [2(n), 4-[1-[2-(difluoromethoxy)ethyl]-8-methoxy-2-tetrahydropyran-4-yl-imidazo[4,5-c]quinolin-7-yl]-3,5-dimethyl-isoxazole]: the recovery at 30 min, 1 μM in [1] was determined as 74.8%; in data set [2], 58.1%.

`COc1cc2c(cc1-c1c(C)noc1C)ncc1nc(C3CCOCC3)n([C@H]3CC[C@H](OC(F)F)CC3)c12` [2(r)]: the EC50 came to 281 nM on BRD2-1, 104 nM at BRD3-1 and 406 nM at BRD4-FL.

On to `COc1cc2c(cc1-c1c(C)noc1C)ncc1nc(C3CCOCC3)n([C@H](C)COC(F)F)c12` [2(g), 4-[1-[(1R)-2-(difluoromethoxy)-1-methyl-ethyl]-8-methoxy-2-tetrahydropyran-4-yl-imidazo[4,5-c]quinolin-7-yl]-3,5-dimethyl-isoxazole], for which the IC50 on BRD2-1: Domain 1 of BRD2 was 24 nM; on BRD3-1: Domain 1 of BRD3, 17 nM; in data set [3], 14 nM. In addition, the concentration giving a half-maximal response (EC50) was 6.89 nM at BRD2-1, 2.76 nM on BRD3-1 and 7.17 nM at BRD4-FL. Also, the recovery at 30 min, 1 μM is 55.5% in data set [1] and 43% in data set [2]. The tumor volume result in data set [4] (10 mg/kg, 30 mg/kg and 60 mg/kg PO QD × 21, 21 days post administration, dose dependent) was “significantly reduced the tumor volume”. Moreover, in data set [4] (30 mg/kg and 60 mg/kg PO, 21 days post administration, CFZ 5 mg/kg IV), the “tumor volume compared with carfilzomib (CFZ)” value was “reduced the tumor volume to a greater extent than carfilzomib”. Besides, the antitumor activity entry in [4] (low-dose 10 mg/kg PO) is “moderate antitumor activity”.

Consider `COc1cc2c(cc1-c1c(C)noc1C)ncc1nc(CN(C)C)n([C@H](C)COC(F)F)c12` [3(b), 1-[1-[(1R)-2-(difluoromethoxy)-1-methyl-ethyl]-7-(3,5-dimethylisoxazol-4-yl)-8-methoxy-imidazo[4,5-c]quinolin-2-yl]-N,N-dimethyl-methanamine], for which the figures for the IC50 (at BRD2-1: Domain 1 of BRD2; at BRD3-1: Domain 1 of BRD3; in data set [3]) were 32 nM, 18 nM and 32 nM, respectively. The recovery at 30 min, 1 μM in data set [1] was 0.5%; in data set [2], 13.7%.

As to `COc1cc2c(cc1-c1c(C)noc1C)ncc1nc(C3CCCCC3)n([C@H](C)COC(F)F)c12` [2(j), 4-[2-cyclohexyl-1-[(1R)-2-(difluoromethoxy)-1-methyl-ethyl]-8-methoxy-imidazo[4,5-c]quinolin-7-yl]-3,5-dimethyl-isoxazole], the recovery at 30 min, 1 μM in data set [1] is 7%; in data set [2], 1.5%.

As to `COc1cc2c(cc1-c1c(C)noc1C)ncc1nc(C3CCC(F)(F)CC3)n([C@H](C)COC(F)F)c12` [2(h), 4-[2-(4,4-difluorocyclohexyl)-1-[(1R)-2-(difluoromethoxy)-1-methyl-ethyl]-8-methoxy-imidazo[4,5-c]quinolin-7-yl]-3,5-dimethyl-isoxazole], the values for the IC50 (on BRD2-1: Domain 1 of BRD2; at BRD3-1: Domain 1 of BRD3; in data set [3]) were 47 nM, 31 nM and 21 nM, respectively. Also, the 50% effective concentration (EC50) came to 27.3 nM on BRD2-1, 6.96 nM on BRD3-1 and 46.2 nM at BRD4-FL. Also, the recovery at 30 min, 1 μM in data set [1] is 35.2%; in data set [2], 62.3%.

For `COc1cc2c(cc1-c1c(C)noc1C)ncc1nc(CN3CC(F)(F)C3)n([C@H](C)COC(F)F)c12` [3(j)], the values for the recovery at 30 min, 1 μM in data set [1] and in data set [2] were 8% and 6.9%, respectively.

Turning to `COc1cc2c(cc1-c1c(C)noc1C)ncc1nc(CN3CCC(F)(F)CC3)n([C@H](C)COC(F)F)c12` [3(f), 4-[1-[(1R)-2-(difluoromethoxy)-1-methyl-ethyl]-2-[(4,4-difluoro-1-piperidyl)methyl]-8-methoxy-imidazo[4,5-c]quinolin-7-yl]-3,5-dimethyl-isoxazole], the recovery at 30 min, 1 μM in data set [1] was 2.6%; in data set [2], 0.6%.
